Test results from patent publication US6096529A, “Recombinant α-2,3-sialyltransferases and their uses” (priority 1997, dated 2000).

Key:
Type in all cases: biochemical
[1] = molecular target: T1, N. meningitidis α-2,3-sialyltransferase (Neisseria meningitidis serogroup B, UniProt P72097); design: b112 rows possibly recombinant MC58 lst (pNST-01) in E. coli extracts; details: for ratios of activity as acceptor: synthetic saccharide acceptors, relative to FCHASE-aminophenyl-LacNAc; for activity stimulated by addition: 10 mM, enzyme from N. meningitidis extracts
Procedure: Measurement of Sialyltransfrase Activity--The sialyltransferase activity from N. meningitidis MC58L3, 406Y L3 and M982B L7, and the E. coli carrying pNST plasmids was measured in toluene treated cells or cell free extracts prepared as described previously (Wakarchuk, et al. (1996) J. Biol. Chem. in Press) acceptors were derived from aminophenylglycosides reacted with 6(5-fluorescein-carboxamnido)-hexanoic acid succimidyl ester (FCHASE) and were prepared as previously described (Wakarchuk, et al. (1996) J. Biol. Chem. in Press). Reactions for the enzyme were performed at 37° C. in 20 μl of MES buffer, 50 mM pH 6.0, 10 mM MnCl2, with 0.2 or 1.0 mM labeled acceptor, 0.2 mM CMP-Neu5Ac donor and various amounts of enzyme, either from crude bacterial extracts, or extracts of recombinant E. coli with the cloned gene. The recombinant enzymes were assayed for 10-120 minutes, while extracts from N. meningitidis were incubated 1-15 h. The reactions were terminated by diluting the reaction 1:100 with 10 mM NaOH. These samples were then diluted appropriately in water prior to analysis by capillary electrophoresis.
Capillary electrophoresis (CE) and was performed with a Beckman (Fullerton, Calif.) P/ACE 5510 equipped with a 3 mW Argon-ion laser induced fluorescence detector, λ excitation=488 nm, λ emission=520 nm. The capillary was bare silica 75 μ X 47 cm, with the detector at 40 cm. The capillary was conditioned before each run by washing with 0.2 M NaOH for 2 min., water for 2 min., and 25 mM sodium tetraborate pH 9.4 for 2 min. Samples were introduced by pressure injection for 2-5 seconds, and the separation was performed at 15 kV, 75 μA. Peak integration was performed with the Beckman System Gold (version 8.1) software.
Target sequence in this assay (P72097 whole entry Q29H/E40D/N94K/T242A/K273N): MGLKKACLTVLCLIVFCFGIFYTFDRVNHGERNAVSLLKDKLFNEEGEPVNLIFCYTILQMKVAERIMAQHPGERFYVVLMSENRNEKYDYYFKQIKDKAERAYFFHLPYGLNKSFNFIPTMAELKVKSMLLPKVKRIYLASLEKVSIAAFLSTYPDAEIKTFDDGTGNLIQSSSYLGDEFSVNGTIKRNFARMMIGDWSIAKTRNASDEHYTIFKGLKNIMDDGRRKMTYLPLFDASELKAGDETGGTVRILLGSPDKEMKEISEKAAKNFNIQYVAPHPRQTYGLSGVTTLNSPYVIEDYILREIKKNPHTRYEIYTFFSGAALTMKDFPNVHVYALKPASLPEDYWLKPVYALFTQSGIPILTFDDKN

[2] = molecular target: T1, N. meningitidis α-2,3-sialyltransferase; test: Coupled sialylation of FCHASE-LacNAc with Neu5Ac, Neu5Pr or Neu5Gc and CMP-Neu5Ac synthetase; design: made in house; host or cells: E. coli BMH71-18/pNST-18; details: for use as alternate donor, rate: compared with Neu5Ac; for time to complete conversion of the acceptor (FCHASE-LacNAc): coupled reaction with CMP-Neu5Ac synthetase
Procedure: Sialylation of FCHASE-thio-N-acetyllactosamine with N-acetyl-, N-propionyl and N-glycolyl-Neuraminic Acid--The 50 μL reaction mixtures included […] acceptor, and 2 mM of either Neu5Ac, Neu5Gc or Neu5Pr, in 100 mM Tris pH 7.5. 0.2 mM DTT, 10 mM MgCl2, […], with 50 mU inorganic pyrophosphatase (Sigma). 47 mU CMP-Neu5Ac synthetase, 5 mU purified α-2,3-sialyl-transferase. […] The masses of the sialylated products were measured in the negative ion mode on a VG Quattro triple quadrupole mass spectrometer (Fisons Instruments).
Target sequence in this assay (P72097 2-371): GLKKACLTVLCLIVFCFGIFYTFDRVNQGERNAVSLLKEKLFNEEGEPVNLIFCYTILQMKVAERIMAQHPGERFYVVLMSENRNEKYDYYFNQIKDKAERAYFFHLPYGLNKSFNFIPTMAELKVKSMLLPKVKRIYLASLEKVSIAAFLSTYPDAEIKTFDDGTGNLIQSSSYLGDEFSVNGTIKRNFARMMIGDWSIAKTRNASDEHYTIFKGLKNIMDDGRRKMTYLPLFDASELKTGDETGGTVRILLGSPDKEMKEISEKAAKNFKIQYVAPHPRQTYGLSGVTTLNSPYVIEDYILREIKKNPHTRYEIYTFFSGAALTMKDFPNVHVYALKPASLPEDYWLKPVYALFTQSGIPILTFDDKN

[3] = molecular target: T2, purified recombinant α-2,3-sialyltransferase (Neisseria meningitidis serogroup B, UniProt P72097); test: Survey of oligosaccharide acceptors (qualitative, CE or TLC)
T2 construct: made in house; host or cells: E. coli BMH71-18/pNST-18
T2 sequence (P72097 2-371): as above
Procedure: Measurement of Sialyltransferase Activity and Survey of Oligosaccharide Acceptors--FCHASE-labelled oligosaccharides were prepared as described above, while the APTS-labelled oligosaccharides were prepared by reductive amination of reducing saccharides according to the method described by Guttman et at. […] APTS-saccharides were quantitated by measuring the A455, and using an extinction coefficient of 17160 M^-1 cm^-1 . […] For the TMR labelled acceptors we used an extinction coefficient of 80,000 M^-1 cm^-1 for quantitation. The sialyltransferase activity was routinely measured using 0.5 mM FCHASE-N-acetyllactosamine as the acceptor and the assay conditions as described above. […] Assays were monitored so that for all acceptor concentrations, no more than 10% conversion to product occurred. The ranges of acceptor and donor concentrations were determined empirically, then a range spanning 0.2Km, up to 5Km, was used to obtain the values. […]
The reaction mixtures from the FCHASE- and APTS-labelled acceptors were analyzed by capillary electrophoresis performed with a Beckman instruments (Fullerton, Calif.) P/ACE 5510 equipped with a 3 mW Argon-ion laser induced fluorescence detector, λ excitation=488 nm λ emission=520 nm. […]

[4] = molecular target: T2, purified recombinant α-2,3-sialyltransferase; test: Enzymatic properties of the purified recombinant α-2,3-sialyltransferase (standard assay); details: for inhibition at 1000 µM: 1 mM, standard assay; for activity stimulated by presence: 20 mM
Procedure: (§1) Measurement of Sialyltransferase Activity and Survey of Oligosaccharide Acceptors--FCHASE-labelled oligosaccharides were prepared as described above, while the APTS-labelled oligosaccharides were prepared by reductive amination of reducing saccharides according to the method described by Guttman et at. (Anal. Biochem233:234 (1996)) The Gal-β-APTS acceptor was derived from labelling of lactose; the Gal-α-APTS acceptor was derived from labelling of melibiose; the N-acetyllactosamine (LacNAc) acceptor was synthesized by APTS labelling of chitobiose, followed by enzymatic modification with bovine β-Galactosyl transferase to produce the LacNAc moiety-, the Gal-α-1.4-Gal-β acceptor was enzymatically synthesized from β-Gal-APTS with the α-1,4-galactosyltransferase from N. meningitidis. All of the reductive amination products were purified by gel permeation chromatography on Toyopearl HW4OF (Sigma-Aldrich), 1.5 cm×15 cm column, using water as the eluant. It should be mentioned that all of these molecules have the terminal reducing sugar ring opened in the process of labelling. APTS-saccharides were quantitated by measuring the A455, and using an extinction coefficient of 17160 M^-1 cm^-1 . The TMR-labelled oligosaccharides were prepared as described by Zhao et al. (1994) Glycobiology 4:239-242. For the TMR labelled acceptors we used an extinction coefficient of 80,000 M^-1 cm^-1 for quantitation. The sialyltransferase activity was routinely measured using 0.5 mM FCHASE-N-acetyllactosamine as the acceptor and the assay conditions as described above. For measurement of Km, and kcat values, assays were performed with the APTS labelled saccharides at room temperature. Assays were monitored so that for all acceptor concentrations, no more than 10% conversion to product occurred. The ranges of acceptor and donor concentrations were determined empirically, then a range spanning 0.2Km, up to 5Km, was used to obtain the values. Data were examined using the Grafit™3.0 software package (Erithacus Software, London, UK).
(§2) The reaction mixtures from the FCHASE- and APTS-labelled acceptors were analyzed by capillary electrophoresis performed with a Beckman instruments (Fullerton, Calif.) P/ACE 5510 equipped with a 3 mW Argon-ion laser induced fluorescence detector, λ excitation=488 nm λ emission=520 nm. The Capillary was of bare silica 75 μ X 57 cm, with the detector at 50 cm. The capillary was conditioned before each run by washing with 0.2 M NaOH for 2 min., water for 2 min., and either 20 mM sodium phosphate buffer, pH 7.4 or sodium tetraborate, pH 9.3, 2 min. Samples were introduced by pressure injection for 2-5 seconds, and the separation was performed at 18 kV, 75 μA. Peak integration was performed with the Beckman PACE-Station software (version 1).

[5] = molecular target: T2, purified recombinant α-2,3-sialyltransferase; test: Determination of kinetic constants with APTS-labelled acceptors; details: for kcat IKm: apparent, APTS-labelled acceptor, CMP-Neu5Ac 200 μM
Procedure: as §1, §2

O=C(CCCCCNC(=O)c1ccc(-c2c3ccc(=O)cc-3oc3cc(O)ccc23)c(C(=O)O)c1)Nc1ccc(OC2O[C@H](CO)[C@H](O)[C@H](O)[C@H]2O)cc1 (some centres unmarked) [FCHASE-aminophenyl-Gal] was tested, and the “ratios of activity as acceptor” value [1] was 0.03.

CCC(=O)N[C@H]1[C@H]([C@H](O)[C@H](O)CO)OC(O)(C(=O)O)C[C@@H]1O (some centres unmarked) [Neu5Pr, N-propionyl-Neuraminic Acid] was tested, and the “use as alternate donor, rate” value [2] was “rates lower than with Neu5Ac” and the “time to complete conversion of the acceptor (FCHASE-LacNAc)” value [2] was 90 min.

With Triton X-100 the “effect of detergents on the enzyme” value ([1]; Triton X-100 up to 0.2%) was “exception”.

O=C(CCCCCNC(=O)c1ccc(-c2c3ccc(=O)cc-3oc3cc(O)ccc23)c(C(=O)O)c1)NCCCCCCS[C@@H]1O[C@H](CO)[C@H](O)[C@H](O)[C@H]1O [Gal-β S AH-FCHASE] was tested, and the “product formation with sulfur as the linkage atom” value [3] was “product formation”.

With Nc1ccn([C@@H]2O[C@H](COP(=O)(O)OP(=O)(O)O)[C@@H](O)[C@H]2O)c(=O)n1 [CDP] the inhibition at 1000 µM [4] was 40%.

For CC(=O)N[C@H]1[C@H]([C@H](O)[C@H](O)CO)O[C@](OP(=O)(O)OC[C@H]2O[C@@H](n3ccc(N)nc3=O)[C@H](O)[C@@H]2O)(C(=O)O)C[C@@H]1O [CMP-Neu5Ac], the substrate inhibition ([5]; as high as 1 mM CMP-Neu5Ac) was “No significant substrate inhibition”.

With O=C(CO)N[C@H]1[C@H]([C@H](O)[C@H](O)CO)OC(O)(C(=O)O)C[C@@H]1O (some centres unmarked) [Neu5Gc, 5-N-glcolylneuraminic acid] the “conversion of the acceptor” value ([2]; after 120 min of incubation) was “above 90%” and the “use as alternate donor, rate” value [2] was “rates lower than with Neu5Ac”.

With CC(=O)N[C@H]1[C@H](O[C@@H]([C@H](O)[C@H](CNc2cc(S(=O)(=O)O)c3ccc4c(S(=O)(=O)O)cc(S(=O)(=O)O)c5ccc2c3c54)NC(C)=O)[C@H](O)CO)O[C@H](CO)[C@@H](O[C@@H]2O[C@H](CO)[C@H](O)[C@H](O)[C@H]2O)[C@@H]1O [LacNAc, Gal-β-(1→4)-β-GlcNAc-β-GlcNAc*] the “kcat IKm” value [5] was 1750 M⁻¹ s⁻¹ and the “increase of apparent Kcat/Km” value ([5]; relative to the terminal Gal-β monosaccharide acceptor) was 5 fold.

In the case of CC(=O)N[C@H]1[C@H]([C@H](O)[C@H](O)CO)OC(O)(C(=O)O)C[C@@H]1O (some centres unmarked) [Neu5Ac, 5-N-acetylneuraminic acid], the “time to complete conversion of the acceptor (FCHASE-LacNAc)” value [2] is reported as 60 min.

In the case of O=C(O)CN(CCN(CC(=O)O)CC(=O)O)CC(=O)O [EDTA], the “activity in the presence of EDTA” value ([4]; 5 mM EDTA, purified enzyme) is reported as “still active” and the “activity in the presence of EDTA” value ([1]; 5 mM EDTA) is reported as “active”.

Compound Nc1ccn([C@@H]2O[C@H](COP(=O)(O)O)[C@@H](O)[C@H]2O)c(=O)n1 [CMP] has an inhibition at 1000 µM [4] of 80%.

With [Cl][Mn][Cl] [MnCl2] the “activity stimulated by presence” value ([4]; purified enzyme) was 4 fold and the “activity stimulated by addition” value [1] was 3 fold.

With O=S(=O)(O)c1cc(NC[C@H](O)[C@@H](O)[C@H](O[C@@H]2O[C@H](CO)[C@H](O)[C@H](O)[C@H]2O)[C@H](O)CO)c2ccc3c(S(=O)(=O)O)cc(S(=O)(=O)O)c4ccc1c2c34 [Gal-β-(1→4)-Glc, Gal-β-(1→4)-Glc*] the “kcat IKm” value [5] was 367 M⁻¹ s⁻¹.

CC(=O)N[C@@H]1[C@@H](O)[C@H](O[C@@H]2O[C@H](CO)[C@H](O)[C@H](O)[C@H]2O)[C@@H](CO)O[C@H]1SCCCCCCNC(=O)CCCCCNC(=O)c1ccc(-c2c3ccc(=O)cc-3oc3cc(O)ccc23)c(C(=O)O)c1 [Gal-β-(1→4)-GlcNAc-β S AH-FCHASE] was tested, and the “product formation with sulfur as the linkage atom” value [3] was “product formation”.

In the case of O=C(CCCCCNC(=O)c1ccc(-c2c3ccc(=O)cc-3oc3cc(O)ccc23)c(C(=O)O)c1)Nc1ccc(O[C@@H]2O[C@H](CO)[C@@H](O[C@@H]3O[C@H](CO)[C@H](O)[C@H](O)[C@H]3O)[C@H](O)[C@H]2O)cc1 [FCHASE-aminophenyl-Lac], the “ratios of activity as acceptor” value [1] is reported as 0.29.

In the case of O=S(=O)(O)c1cc(NC[C@H](O)[C@@H](O)[C@H](O[C@@H]2O[C@H](CO)[C@H](O[C@H]3O[C@H](CO)[C@H](O)[C@H](O)[C@H]3O)[C@H](O)[C@H]2O)[C@H](O)CO)c2ccc3c(S(=O)(=O)O)cc(S(=O)(=O)O)c4ccc1c2c34 [P^k, Gal-α-(1→4)-Gal-(1→4)-β-Glc*], the “kcat IKm” value [5] is reported as 93.3 M⁻¹ s⁻¹.

For CC(=O)N[C@H]1[C@H](Oc2ccc(NC(=O)CCCCCNC(=O)c3ccc(-c4c5ccc(=O)cc-5oc5cc(O)ccc45)c(C(=O)O)c3)cc2)O[C@H](CO)[C@@H](O[C@@H]2O[C@H](CO)[C@H](O)[C@H](O)[C@H]2O)[C@@H]1O [FCHASE-aminophenyl-LacNAc], the “ratios of activity as acceptor” value [1] was 1.

O[C@H](CS)[C@H](O)CS (racemic) [DTT, dithiothreitol] was tested, and the “effect on the activity” value ([4]; 1-20 mM range) was “no effect”.

With [Cl-].[Cl-].[Mg+2] [MgCl2] the “activity stimulated by presence” value ([4]; purified enzyme) was 3 fold and the “activity stimulated by addition” value [1] was 2 fold.

With O=S(=O)(O)c1cc(NC[C@H](O)[C@@H](O)[C@H](O)[C@H](O)CO[C@H]2O[C@H](CO)[C@H](O)[C@H](O)[C@H]2O)c2ccc3c(S(=O)(=O)O)cc(S(=O)(=O)O)c4ccc1c2c34 [Gal-α-(1→6)-Gal, Gal-α-(1→6)-Gal*] the “kcat IKm” value [5] was 517 M⁻¹ s⁻¹.
